Among the data in PubChem BioAssay AID179 (DTP/NCI, 2004) are EC50, IC50 and outcome values, retold here.

Molecules are shown by their SMILES. Calls of active or inactive are those of the source.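 Rule for the calls: active = compounds giving half or more protection of infected cells from virus-caused growth loss, again on retest; inactive = the rest.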

This experiment relates to CEM cells HIV-1 protection, formazan growth assay. Nature of the experiment: NCI AIDS Antiviral Assay. As to conditions: for IC50: measured here: growth of uninfected CEM cells. The method, boiled down:
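Screen of anti-HIV-1 activity in human CEM cells using a formazan-based growth measurement at five drug concentrations. Hits with 50% or greater protection were repeated, and confirmation required reproducible complete protection.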

As usually defined, the EC50 is the midpoint of the concentration-response curve. Broadly, the IC50 is the point on the concentration scale where inhibition reaches its midpoint. Low readings indicate higher potency, high ones lower potency. As for `CC1=CC(=O)/C(=C\N2C(=O)CC(=O)NC2=S)C(=O)O1`, the EC50 is > 100 µM and the IC50 is > 100 µM. For the molecule `O=C(O)c1ccccc1-n1nc(C(=O)O)c(N=Nc2ccc(/C=C/c3ccc(N=Nc4c(C(=O)O)nn(-c5ccccc5C(=O)O)c4O)cc3S(=O)(=O)O)c(S(=O)(=O)O)c2)c1O`, the EC50 was > 0.977 µM and the IC50 was > 0.977 µM. Regarding `O=C(O)c1cc(C(=O)O)c(C(=O)O)c(C(=O)O)c1C(=O)O`, the result was inactive.

On to `CC[C@@H]1CC2CN3CCc4c([nH]c5ccc(OC)cc45)C(CO)(C2)C13` (stereo partly drawn), for which the outcome was inactive.

Take `Cc1c(C(=O)O)cc2n(c1=O)Cc1cc3ccccc3nc1-2`: the EC50 was > 10 µM and the IC50 is > 10 µM. Regarding `O=C1CC(c2ccc(Cl)cc2)=Nc2ccccc2N1`, the EC50 was 6.31 µM and the IC50 turned out to be 95.5 µM. For `COc1ccc(NC(=S)/C(=C(/[O-])c2ccc(C)cc2)[n+]2ccccc2)cc1`, the outcome was inactive. `CC(=O)O[C@@H]1CCN(Cc2ccccc2)C[C@@H]1CN(C(C)=O)C12CC3CC(CC(C3)C1)C2`: the EC50 is > 8.51 µM and the IC50 is 8.32 µM. The matching figures for `Nc1ncnc2c1ncn2[C@H]1CC(CO)CO1` (stereo partly drawn): > 661 µM and > 661 µM.

With `COC(=O)C1=C(C(=O)OC)SC(=C(N=Nc2ccccc2)c2ccccc2)S1`, the outcome was inactive. As for `CCCCCCCCCCCCCCC(F)C(=O)OCC1OC(CO)(OC2OC(CO)C(O)C(O)C2O)C(O)C1O` (stereo not drawn), the EC50 is > 200 µM and the IC50 was 95.5 µM. With `O=C1N[C@@H](Cc2ccccc2)C(=O)N2CCCC[C@H]12`, the result was inactive. `C[n+]1ccccc1-c1nc(-c2cccc[n+]2C)nc(-c2cccc[n+]2C)n1`: the EC50 was > 200 µM and the IC50 was > 200 µM. As to `O=C(O)C(Cc1ccccc1)NCc1c(O)ccc2c(-c3ccccc3)cc(=O)oc12` (stereo not drawn), the EC50 is > 200 µM and the IC50 was > 200 µM.

As for `COC(=O)NNc1c([N+](=O)[O-])cnn(-c2ccccc2)c1=O`, the EC50 was > 58.9 µM and the IC50 is 0.295 µM. `Oc1ccc(Cl)cc1CN1CCN(Cc2cc(Cl)ccc2O)C1`: the EC50 is > 200 µM and the IC50 is 1.38 µM. Turning to `CCN(CC)C(=O)Oc1c(Br)ccc2cc(C)cc(OC)c12`, the EC50 is > 200 µM and the IC50 was > 200 µM. Consider `Cc1cc2c(C)cc(=O)[nH]c2cc1N`, for which the EC50 is > 200 µM and the IC50 was > 200 µM.

Regarding `O=C(CNc1ccccc1[N+](=O)[O-])Nn1c(-c2ccccc2)nc2ccccc2c1=O`, the EC50 was > 200 µM and the IC50 was found to be 11.7 µM. With `CC(=O)OI1NC(=O)c2ccccc21`, the EC50 is 36.3 µM and the IC50 came out at 126 µM. As to `CN/N=C(/C=C/c1ccccc1)C(C)C`, the EC50 is > 200 µM and the IC50 was > 200 µM. Consider `CC(=O)Nc1ccc(SC#N)c2c(NC(C)=O)cccc12`, for which the outcome was inactive. For the molecule `Cc1cc(S(=O)(=O)Nc2nnc3c4scc(C)c4ncn23)c(S)cc1Cl`, the EC50 was 45.7 µM and the concentration for half-maximal inhibition (IC50) worked out at 50.1 µM. `COc1ccc(NS(=O)c2ccc(-c3ccccc3)cc2)cc1` (stereo not drawn): the EC50 was > 200 µM and the IC50 came to 14.8 µM. For the molecule `COC1(OC)N=C(N)C2(C#N)C(C)=C3NCN(C)N=C3C12C#N` (stereo not drawn), the EC50 was > 200 µM and the IC50 was > 200 µM. Regarding `CCOC(=O)c1cnc2c(ccc3ncccc32)c1Cl`, the EC50 is > 66.1 µM and the IC50 came to 34.7 µM. With `Cc1cc2c(C(C)C)c(O)c(O)c(C=O)c2c(O)c1-c1c(C)c(N(c2cccc3ccccc23)c2cccc3ccccc23)c2c(C(C)C)c(O)c(O)c(C=O)c2c1O`, the outcome was inactive. As for `O=C1CC(CC(O)C(O)C(O)CO)CC(=O)N1` (stereo not drawn), the EC50 is > 200 µM and the IC50 is > 200 µM. Take `CCOC(=O)C1=C(C)NC(C)=C(C(=O)OCC)C1c1ccc([N+](=O)[O-])s1`: the outcome was inactive. With `CC(=O)C1CCC2[C@@H]3CCC4c5nn(-c6ccccc6)nc5CC[C@]4(C)C3CC[C@]12C` (stereo partly drawn), the outcome was inactive. With `CC(=O)N1c2ccccc2C(C)C1c1[nH]c2ccccc2c1C` (stereo not drawn), the EC50 is > 200 µM and the IC50 came to 30.2 µM.

In the case of `O=C1C2C=CC(n3[nH]c(=O)n(Cc4ccccc4)c3=O)CC2C(=O)N1c1cccc(Cl)c1` (stereo not drawn), the EC50 is > 398 µM and the IC50 was > 398 µM. Take `Cc1c(CCCl)c(N=P(c2ccccc2)(c2ccccc2)c2ccccc2)n2c(nc3ccccc32)c1C#N`: the EC50 is > 200 µM and the IC50 was > 200 µM. `CCOC(=O)C[N+]1(C)C2CCC1CC(O)C2` (stereo not drawn): the EC50 is > 200 µM and the IC50 is > 200 µM. Turning to `COC(=O)C1(C(=O)OC)CC(=O)c2cc3c(cc2-c2c(cc(OC)c(OC)c2OC)C1)OCO3`, the EC50 was > 28.8 µM and the IC50 was > 28.8 µM.

Consider `Cc1ccc(Cc2nn(C)c(=O)n2-n2cccc2)cc1`, for which the EC50 is > 200 µM and the IC50 is 102 µM.

For the molecule `Cn1cnc([N+](=O)[O-])c1Sc1ncnc2nc[nH]c12`, the EC50 is > 200 µM and the IC50 stood at 10.7 µM. Turning to `COc1ccc(N2C(=O)C3c4[nH]c5c(C)cccc5c4C4CCC(C(C)(C)C)CC4C3C2=O)cc1` (stereo not drawn), the EC50 is > 200 µM and the IC50 came out at 7.94 µM. With `CC(C)(C)C[PH+](CC[PH+](CC(C)(C)C)CC(C)(C)C)CC(C)(C)C.[C-]#[O+].[C-]#[O+].[C-]#[O+].[C-]#[O+].[Mo]`, the EC50 is > 3.47 µM and the IC50 is > 3.47 µM. `COc1cc2c(c(C(C)(C)C)c1)OC1(O)C2=CC(=O)C=C1C(C)(C)C` (stereo not drawn): the EC50 was > 20 µM and the IC50 turned out to be 0.372 µM.

In the case of `COC(=O)/C=C/CC(=O)NS(C)(=O)=O`, the EC50 was > 200 µM and the IC50 was > 200 µM.

Turning to `Cc1ccccc1NC(=O)c1c(C)oc2c1C(=O)c1ccccc1C2=O`, the EC50 is > 39.8 µM and the IC50 was > 39.8 µM. For the molecule `O=C(O)CC(O)(CC(=O)O)C(=O)O`, the result was inactive. With `Cc1ccc(Cl)c(-c2nc3cc(Cl)c(Cl)cc3[nH]2)c1`, the EC50 is > 60.3 µM and the IC50 was > 60.3 µM. As to `CC(=O)O[C@@H]1C(=O)O[C@@H]2CO[C@H](c3ccccc3)O[C@H]12`, the EC50 is > 200 µM and the IC50 was > 200 µM. With `CC1CN(S(=O)(=O)c2cccc3cnccc23)CCN1` (stereo not drawn), the EC50 was > 126 µM and the IC50 was determined as 38 µM. As to `CCOC(=O)C12C3CCC1C2C(=O)C3` (stereo not drawn), the result was inactive. On to `C[C@H](NC(=O)CNC(=O)CCCCCC(=O)NCC(=O)N[C@@H](C)C(=O)OCc1ccccc1)C(=O)OCc1ccccc1`, for which the EC50 was > 200 µM and the IC50 was > 100 µM. Turning to `COC(=O)[C@@H](N1C(=O)c2ccccc2C1=O)C1(C)CC(Cl)=NO1` (stereo partly drawn), the EC50 is > 200 µM and the IC50 is > 200 µM.

`N#CC(C#N)=Cn1c(=S)[nH]c2ccc([N+](=O)[O-])cc21`: the EC50 is > 200 µM and the concentration for half-maximal inhibition (IC50) was determined as 89.1 µM. With `CC1(C)CC(=O)C(C=NC(=S)C(N)=S)=C(O)C1`, the EC50 is > 200 µM and the IC50 worked out at 37.2 µM. Consider `COC(=O)NC(Cc1ccccc1)NC(C)=O` (stereo not drawn), for which the EC50 was > 200 µM and the IC50 was > 200 µM.
